In one assay the target is T1, human CB1 receptor (Homo sapiens, UniProt P21554).
T1 construct: purchased Perkin Elmer/NEN; host or cells: HEK-293 cells, stably transfected (membranes)
The assay can be described thus: biochemical. Format: binding. Conditions: displacement of [3H]CP55940, hCB1 HEK-293 membranes; read-out: CB1 IC50. On the procedure: (§1) In the present invention, binding affinity is represented by the IC50 value, namely the concentration of a test compound that will displace 50% of a radiolabeled agonist from the CB receptors. […] Preferably these ratios will be obtained for human CB1 and CB2 receptors. The selectivity toward CB2, denoted CB2/CB1 affinity, is calculated as the IC50 value obtained by the test compound for the displacement of the CB1 specific radioligand divided by the IC50 value obtained for the displacement of the CB2 specific radioligand, i.e. the IC50 CB1/IC50 CB2.
The CB1 binding assays were performed by testing the ability of the new compounds to displace [^3H]CP55940 from the CB1 receptor on membranes derived from hCB1 stably transfected HEK-293 cells (Perkin Elmer/NEN). Membranes were diluted in the assay buffer (50 mM Tris-HCl, 2.5 mM EDTA, 5 mM MgCl2, 1 mg/ml BSA, pH=7.4) to 500 μg protein/ml. 50 μl of diluted membranes (25 μg) were incubated with [^3H]CP55940 in the presence or absence of the bicyclic test compounds in a total volume of 0.5 ml. Tested compounds were dissolved in DMSO and diluted in the assay buffer to a final concentration of 0.1% solvent. Control samples were added with identical amount of vehicle. Non-specific binding was measured by the addition of 10 μM of WIN 55212-2. Following 1.5 hours incubation at 30° C. reactions were filtered through Whatman 934A/H filters (presoaked with 0.1% Polyethylenimine (PEI)).
(§2) Binding to CB1 is measured by competitive inhibition of [^3H]CP55940 in HEK-293 cells stably transfected with the human CB1 receptor gene. Binding to CB2 is measured by competitive inhibition of [^3H]WIN55212-2 in CHO cells stably transfected with the human CB2 receptor gene.

The subject of assay [1] is IL-1β secretion from activated RAW 264.7 macrophages. As to the kind of experiment: Inhibition of IL-1β in LPS activated macrophages (ELISA). Format: cell-based. Conditions: Mus musculus; for inhibition at 10 µM: RAW264.7, 24 h, read-out: inhibition of IL-1β secretion. Here is the method:
The technique used to quantify the amount of a given protein in a liquid sample, either tissue culture supernatant or body fluid, is based on Enzyme Linked ImmunoSorbent Assay (ELISA) methodology. Either commercially available or established in house, the assay is based on the capture of the protein of interest by specific antibodies bound to the bottom of an ELISA plate well. […] Again the unbound material is washed away, the samples are then incubated with the appropriate substrate yielding a calorimetric reaction. The reaction is stopped and reading is performed in a spectrophotometer at the appropriate wavelength. Samples are tested at least in duplicate and the appropriate standard curve, consisting of serial dilutions of the recombinant target protein, is incorporated on each plate. Concentration of the protein in the sample is calculated from the standard curve.
RAW 264.7 macrophages, a mouse cell line (ATCC # TIB-71), were grown in Dulbecco's modified Eagle's medium (DMEM) with 4 mM L-glutamine adjusted to contain 1.5 g/L sodium bicarbonate, 4.5 g/L glucose, and 10% heat inactivated fetal bovine serum. Cells were grown in tissue culture flasks and seeded at appropriate density into 24 wells tissue culture plates. 0.5×10^6 Raw cells in one milliliter were stimulated with 2 μg/ml Lipopolysaccharide E. coli 055:B5 (DIFCO Laboratories). The mouse macrophages were pre-treated for one hour with controls or 10 μM of bicyclic CB2 ligands and later on activated with LPS. Dexamethasone was used as a positive control at 50 nM. Supernatant was collected 4 hours (for PGE2) and 24 hours (for IL-1β and TNF-α) after activation, and the levels of the inflammatory agent under study were determined by ELISA, as previously described. Inhibition was calculated versus vehicle treated cells.

The target in a further assay is human CB2 receptor (Homo sapiens, UniProt P34972). As to the kind of experiment: biochemical. The format is binding. Further details: purchased Perkin Elmer/NEN; host or cells: CHO cells, stably transfected (membranes). Conditions: for CB2/CB1 affinity ratio: IC50 CB1/IC50 CB2; for pIC50: displacement of [3H]WIN 55212-2, hCB2 CHO membranes. On the procedure: as §1
The affinities of the novel bicyclic analogs to the CB2 receptor were determined by their ability to displace [^3H]WIN 55212-2 from the receptor in membranes derived from hCB2 stably transfected CHO cells (Perkin Elmer/NEN). Membranes were diluted in assay buffer (10 mM HEPES, 1 mM MgCl2, 1 mM EDTA, 0.3 mg/ml BSA, pH=7.4) to 500 μg protein/ml. 50 μl of diluted membranes (25 μg) were incubated with 0.8 nM of [^3H]WIN 55212-2 in the presence or absence of several concentrations of the bicyclic test compounds in a total volume of 1 ml. Tested compounds were dissolved and diluted as previously described for the hCB1 assay. Non-specific binding was measured by the addition of 10 μM CP 55940. Following 40 minutes incubation at 30° C. reactions were filtered as previously described. Filters for all binding assays were counted in a β-counter and log of analog concentration versus % of binding was plotted. IC50 values were extrapolated from this plot.
as §2

A further assay has as its system Female Balb/c mice. Here is the method:
The purpose of this study is to test in vivo the anti-inflammatory activity of the compounds in paw edema induced by injection of 1% carrageenan in the animal hind paw. Female Balb/c mice (20 g average body weight, Harlan, Israel) are anesthetized with a combination of xylazine and pentobarbitone diluted in sterile saline, 15 and 6 mg/kg i.p. respectively. Anesthetized mice are injected subcutaneously, in the subplantar region of one (right) paw with 0.05 ml of 1% w/v Carrageenan in sterile water. […] The test compounds, including known anti-inflammatory controls, are dissolved in CREMOPHOR EL®:ethanol and further diluted 1:20 or 1:50 in sterile saline prior to i.p. injection that takes place immediately before the carrageenan injection. Three hours after injection the animals are resedated following the previously described procedure. Paw thickness is measured using a dial thickness gauge (Spring-dial, constant low pressure gauge, Mitutoyo, TG/L-1, 0.01 mm) and paw volume is measured using a plethysmometer (model #7150, Ugo Basile, Italy). Paw Edema is expressed as the difference between the right treated and the left untreated paws of the same animal, either as Δ Paw Volume (ΔPV) in millimeters cube or as Δ Paw Thickness (ΔPT) in millimeters. Each group comprises at least 10 animals. […] At the end of the study, animals are euthanized with an i.p. injection of 100 mg/kg pentobarbitone.
The differences among various treatment groups are analyzed by analysis of variance (ANOVA) followed by post-hoc Fisher test. A value of p<0.05 is considered to be statistically significant.
For sake of comparison, known anti-inflammatory drugs such as Celecoxib and Dexamethasone yield respectively in the range of relevant doses 7% and 26% reduction in paw thickness at 0.1 mg/kg, 16% and 31% at 0.25 mg/kg and 24% and 33% at 0.5 mg/kg. […] It should be kept in mind that these commercially available drugs display serious side effects that prevent chronic uses without complementary protective medication.

For another assay, the system named is Adult female BALB/c mice. The format is in vivo, mouse. Conditions: i.p. twice. Here is the method: Adult female BALB/c mice (20 g average body weight, Harlan, Israel) were sensitized on day 0 and day 1 by application of 30 μl of 0.15% Dinitrofluorobenzene (DNFB) diluted in acetone on the shaved skin of the abdomen. On day 6 the animals were challenged by application of 10 μl of DNFB in acetone on one ear. The contralateral ear was not challenged but received the application of 10 μl acetone. Test compounds were administered at increasing doses from 0 to 15 mg/kg i.p. twice, the first injection was immediately after DNFB challenge (on day 6) and the second injection was 16 hours post challenge (on day 7). Each treatment group comprised at least 7 animals. Dexamethasone (DXM) was used as positive control. Ear thickness was determined (in 0.01 mm units) 24 hours after challenge (and 6 hours after second treatment on day 7) using a dial thickness gauge (Mitutoyo, Japan).
Results are analyzed as ear thickness of DNFB treated over DNFB untreated contralateral ear. The impact of the test compound was further assessed by comparing its mean impact on the animals of the treatment group to the response generated by the appropriate vehicle only.

The test system of the next assay is Lewis rats. The format is in vivo, rat. Conditions: 30 mg/kg i.v., 5 times before the disease onset. On the procedure:
Various animal models of autoimmune encephalomyelitis are known in the art, depending on the method of induction, the strain of the animal and the antigen employed to induce the disease. The impact of bicyclic CB2 ligands was tested in EAE using Lewis rats in which the onset of disease is observed by the appearance of clinical symptoms about 10 days after induction. The disease progress and the clinical score increase and peak around day 15 and spontaneous recovery is observed around day 18 after induction of the disease. The animals (at least 9 per test group at initiation of study, except for the untreated control group that comprised only 5 rats) were maintained on a 12 hours light/12 hours dark regimen, at a constant temperature of 22° C., with food and water ad libitum. EAE was induced in these animals by immunization with s.c. injection to the hind paws of 25 μg of purified guinea pig myelin basic protein (MBP, Sigma) emulsified in 0.1 ml of Complete Freund's Adjuvant (Difco).
Methylprednisolone was used as positive control and it was administered daily for 5 consecutive days i.v. at 30 mg/kg starting from day of disease induction by MBP injection. The results are recorded as clinical score; score of 0 indicates a normal animal with no clinical signs, 0.5 indicates a loss of tonicity in the tail's distal part, 1 indicates whole tail paralysis, 2 indicates paraplegia, 3 indicates quadriplegia, 4 indicates complete body paralysis and moribund state and 5 indicates death. The clinical score of the animals is recorded for 11 days following onset of disease and the area under the curve (AUC) is calculated over this period of time.
Moreover, in a separate study animals were euthanized 15 days after induction of the disease by i.p. injection of 100 mg/kg pentobarbital. Brains and spinal cord were removed and were fixed by overnight incubation with 4% Paraformaldehyde. The cervical segment of the spinal cord was dehydrated using ethanol solutions of increasing concentration and then embedded in paraplast. The spinal cord was then sectioned (10 μm) and staining was performed using hematoxylin and eosin. The stained slides were examined under light microscopy for foci of infiltrating lymphocytes. Number of foci were counted and averaged in 6 sections for each animal. Three groups of at least 4 animals each were tested in this system: untreated, vehicle treated, and animals treated with 0.5 mg/kg of compound A. Results are expressed as average±SD of number of foci.

Molecules are shown by their SMILES. pIC50: −log10 of the molar value. Like-named read-outs stand apart in the source and are kept apart here.

T1 sequence (P21554 whole entry): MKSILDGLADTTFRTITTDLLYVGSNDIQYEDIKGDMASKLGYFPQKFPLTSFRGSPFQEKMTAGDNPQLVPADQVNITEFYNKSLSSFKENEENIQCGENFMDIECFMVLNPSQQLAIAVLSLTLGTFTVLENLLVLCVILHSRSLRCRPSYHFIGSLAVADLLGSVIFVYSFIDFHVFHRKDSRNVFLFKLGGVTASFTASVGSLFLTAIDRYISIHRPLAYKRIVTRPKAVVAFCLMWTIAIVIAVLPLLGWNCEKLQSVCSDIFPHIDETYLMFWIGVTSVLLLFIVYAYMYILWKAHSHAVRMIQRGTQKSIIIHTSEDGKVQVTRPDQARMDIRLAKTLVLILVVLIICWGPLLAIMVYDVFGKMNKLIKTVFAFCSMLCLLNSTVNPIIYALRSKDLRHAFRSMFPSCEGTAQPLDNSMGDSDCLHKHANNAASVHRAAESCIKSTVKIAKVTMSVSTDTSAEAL
human CB2 receptor, sequence (P34972 whole entry): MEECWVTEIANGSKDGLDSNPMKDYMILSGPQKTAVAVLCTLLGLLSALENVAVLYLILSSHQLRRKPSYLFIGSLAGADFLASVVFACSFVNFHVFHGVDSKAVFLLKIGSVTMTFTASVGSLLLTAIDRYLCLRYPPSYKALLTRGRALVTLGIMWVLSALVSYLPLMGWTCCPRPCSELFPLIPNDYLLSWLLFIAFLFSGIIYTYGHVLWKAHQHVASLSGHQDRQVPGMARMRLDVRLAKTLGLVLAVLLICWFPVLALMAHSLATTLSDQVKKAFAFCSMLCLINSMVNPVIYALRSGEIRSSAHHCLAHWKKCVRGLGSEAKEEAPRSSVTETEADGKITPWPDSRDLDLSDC

For the compound `CCCCCCC(C)(C)c1cc(OC)c(C2CC(=O)C3CC2C3(C)C)c(OC)c1` (single isomer, unassigned; (-)) [Compound B, (−)-4-[4-(1,1-Dimethyl-heptyl)-2,6-dimethoxy-phenyl]-6,6-dimethyl-bicyclo[3.1.1]heptan-2-one], the pIC50 (usually the IC50 on a negative log10 scale, so that one unit is a factor of ten) was 5.55 at human CB1 receptor and 7.35 on human CB2 receptor. Also, in assay [1], the inhibition – broadly, the percentage by which the read-out fell short of the control – at 10 µM came out at 34%. Also, on human CB2 receptor, the CB2/CB1 affinity ratio was 62.
For `CCCCCCC(C)(C)c1cc(O)c(C2CC(O)C3CC2C3(C)C)c(O)c1` (single isomer, unassigned; (-)) [Compound C, (−)-5-(1,1-Dimethyl-heptyl)-2-(4-hydroxy-6,6-dimethylbicyclo[3.1.1]hept-2-yl)-benzene-1,3-diol] the same measures were 7.51, 8.46, 26% and 9.
For `CCCCCCC(C)(C)c1cc(O)c([C@H]2C/C(=N/O)[C@H]3C[C@@H]2C3(C)C)c(O)c1` [Compound D], in that order: 7.03, 8.47, 67% and 27.
Consider `C[C@@H]1C[C@H]2[C@@H]3CCC4=CC(=O)C=C[C@]4(C)[C@@]3(F)[C@@H](O)C[C@]2(C)[C@@]1(O)C(=O)CO` [Dexamethasone, reference compound], for which testing at 0.05 µM in assay [1] (RAW264.7, positive control at 50 nM, 24 hours after LPS activation) gave an inhibition of 97%. The “reduction in paw thickness” value is 26% with Female Balb/c mice (0.1 mg/kg), 31% in the assay on Female Balb/c mice (0.25 mg/kg) and 33% with Female Balb/c mice (0.5 mg/kg). Moreover, in the assay with Adult female BALB/c mice, the “calculated IC50 reduction in ear thickness” value is listed as 3.2 mg/kg. For the same compound, the “maximal inhibition (reduction in ear thickness)” value in the assay on Adult female BALB/c mice (doses 0 to 15 mg/kg, 24 hours after challenge) is on record as “around 80%”.
For `C[C@H]1C[C@@H]2[C@H]([C@@H](O)C[C@@]3(C)[C@H]2CC[C@]3(O)C(=O)CO)[C@@]2(C)C=CC(=O)C=C12` [Methylprednisolone, reference compound], the “reduction in the AUC of the clinical score” value in the assay with Lewis rats is on record as 34%.

The values above are taken from patent US20050020544A1, “Bicyclic CB2 cannabinoid receptor ligands” (priority 2002, published 2005).
